Assay results from patent US7473790B2 (Pfizer Inc., priority 2003, dated 2009).

Target: T1, HCV polymerase (Hepatitis C virus genotype 1b, UniProt P26663)
T1 construct: 2.5 pmoles (0.15 μg) HCV polymerase protein in a final volume of 75 μL
Assay: HCV polymerase primer/template-directed transcription assay (32P-GTP incorporation, filter binding)
Format: biochemical
Conditions: recombinant HCV polymerase; 30 minutes at 30° C.; concentration giving 50% inhibition of polymerase-directed transcription; read-out: IC50
Experimental: The compounds described herein were tested for activity with HCV polymerase. Recombinant HCV polymerase was tested for its ability to perform primer/template-directed transcription in assays that contained 30 mM tris-HCl pH 7.2, 10 mM MgCl2, 20 mM NaCl, 1 mM Dithiothreitol (DTT), 0.05% Tween-20, 1% glycerol, 5 pmoles biotin-dG12 (primer), 0.5 pmoles poly(rC)300 (template), 1 μM GTP, 0.1-0.3 uCi α-^32P-GTP, and 2.5 pmoles (0.15 μg) HCV polymerase protein in a final volume of 75 μL. Reactions were initiated by addition of enzyme and incubated 30 minutes at 30° C. Reactions were stopped by addition of 33 mM EDTA, and polynucleotide products were collected by filtration through Diethylaminoethyl (DE) Filtermat papers (Wallac). Unincorporated triphosphate was removed by washing the filters with 5% dibasic sodium phosphate. The filters were counted in a Packard Tri-Lux Microbeta scintillation counter (Packard Bioscience, Meriden, Conn.). Compounds to be tested were added at various concentrations, e.g., 1 μm to 50 μm, from stocks in 10% DMSO-water (final DMSO is 1% in reaction).
IC50 values were estimated from the primary cpm data (collected in triplicate) using the formula: cpm (I)=cpm(no inhibitor)(1−([I]/([I]+IC50))). An IC50 value represents the concentration (in μM) of a compound that provides 50% inhibition of polymerase-directed transcription in the above assay. A percent inhibition value is expressed for a compound where it was impractical to calculate an IC50 value with available data. If the IC50 estimated by the above equation was less than 200 nM, it was recalculated using the following equation, which takes into account the enzyme concentration (30 nM) in the assay: cpm(I)=cpm(no inhibitor)(1−((((I+IC50+30e−9)−sqrt(((I+IC50+30e−9)^2)−4×30e−9×I)))/((2)(30e−9))). Curve fitting was performed using the program KaleidaGraph (Synergy Software, Reading, Pa.).

T1 sequence (P26663 2420-3010): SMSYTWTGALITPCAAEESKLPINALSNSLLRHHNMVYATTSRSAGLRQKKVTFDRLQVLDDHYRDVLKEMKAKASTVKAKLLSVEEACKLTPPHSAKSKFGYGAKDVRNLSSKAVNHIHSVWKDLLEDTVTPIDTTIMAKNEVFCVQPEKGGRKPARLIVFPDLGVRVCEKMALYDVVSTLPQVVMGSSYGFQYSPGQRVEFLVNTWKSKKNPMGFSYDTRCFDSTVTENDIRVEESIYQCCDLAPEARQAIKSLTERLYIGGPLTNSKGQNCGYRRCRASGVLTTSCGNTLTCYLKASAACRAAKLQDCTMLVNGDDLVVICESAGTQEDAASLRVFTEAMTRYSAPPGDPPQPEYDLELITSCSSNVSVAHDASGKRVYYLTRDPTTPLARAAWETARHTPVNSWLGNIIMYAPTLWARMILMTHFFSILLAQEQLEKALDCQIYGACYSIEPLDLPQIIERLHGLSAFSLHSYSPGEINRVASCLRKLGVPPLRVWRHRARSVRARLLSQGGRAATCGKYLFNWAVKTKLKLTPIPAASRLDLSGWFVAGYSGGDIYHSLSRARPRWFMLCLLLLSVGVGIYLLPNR

CC(C)(C#N)c1ccc(CCC2(C3CCCC3)CC(=O)C(Cc3nc4ncccn4n3)C(=O)O2)cc1F (racemic) [A(104), 2-{4-[2-(2-Cyclopentyl-4,6-dioxo-5-[1,2,4]triazolo[1,5-a]pyrimidin-2-ylmethyl-tetrahydro-pyran-2-yl)-ethyl]-2-fluoro-phenyl}-2-methyl-propionitrile]
IC50: 8 nM

Cc1cnc2nc(CC3C(=O)CC(CCc4ccc(C(C)(C)C#N)c(F)c4)(C4CCCC4)OC3=O)nn2c1 (racemic) [A(108), 2-(4-{2-[2-Cyclopentyl-5-(6-methyl-[1,2,4]triazolo[1,5-a]pyrimidin-2-ylmethyl)-4,6-dioxo-tetrahydro-pyran-2-yl]-ethyl}-2-fluoro-phenyl)-2-methyl-propionitrile]
IC50: 3 nM

Cc1cc(C)n2nc(CC3=C(O)CC(CCc4ccc(C5(C#N)CC5)c(Cl)c4)(C4CCCC4)OC3=O)nc2n1 (racemic) [A(200), 1-(2-Chloro-4-{2-[2-cyclopentyl-5-(5,7-dimethyl-[1,2,4]triazolo[1,5-a]pyrimidin-2-ylmethyl)-4-hydroxy-6-oxo-3,6-dihydro-2H-pyran-2-yl]-ethyl}-phenyl)-cyclopropanecarbonitrile]
IC50: 5 nM

Cc1cc(C)n2nc(CC3=C(O)CC(CCc4ccc(C5(C#N)CC5)c(Cl)c4)(C4CCCC4)OC3=O)nc2n1 (racemic) [A(201), 1-(2-Chloro-4-{2-[2-cyclopentyl-5-(5,7-dimethyl-[1,2,4]triazolo[1,5a]pyrimidin 2-ylmethyl)-4-hydroxy-6-oxo-3,6-dihydro-2H-pyran-2-yl]-ethyl}-phenyl)-cyclopropanecarbonitrile]
IC50: 12 nM

Cc1cnc2nc(CC3=C(O)CC(CCc4ccc(C(C)(C)C#N)c(Cl)c4)(C4CCCC4)OC3=O)nn2c1 (racemic) [A(202), 2-(2-Chloro-4-{2-[2-cyclopentyl-4-hydroxy-5-(6-methyl-[1,2,4]triazolo[1,5-a]pyrimidin-2-ylmethyl)-6-oxo-3,6-dihydro-2H-pyran-2-yl]-ethyl}-phenyl)-2-methyl-propionitrile]
IC50: 12 nM

Cc1cnc2nc(CC3=C(O)CC(CCc4ccc(C(C)(C)C#N)c(Cl)c4)(C4CCCC4)OC3=O)nn2c1 (racemic) [A(203), 2-(2-Chloro-4-{2-[2-cyclopentyl-4-hydroxy-5-(6-methyl-[1,2,4]triazolo[1,5-a]pyrimidin-2-ylmethyl)-6-oxo-3,6-dihydro-2H-pyran-2-yl]-ethyl}-phenyl)-2-methyl-propionitrile]
IC50: 20 nM

CCc1cc(CCC2(C3CCCC3)CC(O)=C(Cc3nc4ncc(Cl)cn4n3)C(=O)O2)c(OC)cc1O (racemic) [A(210), 3-[(6-chloro[1,2,4]triazolo[1,5-a]pyrimidin-2-yl)methyl]-6-cyclopentyl-6-[2-(5-ethyl-4-hydroxy-2-methoxyphenyl)ethyl]-4-hydroxy-5,6-dihydro-2H-pyran-2-one]
IC50: 2 nM

CCc1cc(CCC2(C3CCCC3)CC(O)=C(Cc3nc4ncc(Cl)cn4n3)C(=O)O2)c(OC)cc1O (racemic) [A(211), (−)-3-[(6-chloro[1,2,4]triazolo[1,5-a]pyrimidin-2-yl)methyl]-6-cyclopentyl-6-[2-(5-ethyl-4-hydroxy-2-methoxyphenyl)ethyl]-4-hydroxy-5,6-dihydro-2H-pyran-2-one]
IC50: 4 nM

CCc1cc(CCC2(C3CCCC3)CC(O)=C(Cc3nc4ncc(C)cn4n3)C(=O)O2)c(OC)cc1O (racemic) [A(212), 3-[(6-methyl[1,2,4]triazolo[1,5-a]pyrimidin-2-yl)methyl]-6-cyclopentyl-6-[2-(5-ethyl-4-hydroxy-2-methoxyphenyl)ethyl]-4-hydroxy-5,6-dihydro-2H-pyran-2-one]
IC50: 4 nM

CCc1cc(CCC2(C3CCCC3)CC(O)=C(Cc3nc4ncc(C)cn4n3)C(=O)O2)c(OC)cc1O (racemic) [A(213), 3-[(6-methyl[1,2,4]triazolo[1,5-a]pyrimidin-2-yl)methyl]-6-cyclopentyl-6-[2-(5-ethyl-4-hydroxy-2-methoxyphenyl)ethyl]-4-hydroxy-5,6-dihydro-2H-pyran-2-one]
IC50: 4.5 nM

O=C1OC(CCc2ccc(O)c(CC(F)(F)F)c2)(C2CCCC2)CC(O)=C1Cc1nc2ncc(Cl)cn2n1 (racemic) [A(223), 3-[(6-chloro[1,2,4]triazolo[1,5-a]pyrimidin-2-yl)methyl]-6-cyclopentyl-4-hydroxy-6-{2-[4-hydroxy-3-(2,2,2-trifluoroethyl)phenyl]ethyl}-5,6-dihydro-2H-pyran-2-one]
IC50: 5 nM

O=C1OC(CCc2ccc(O)c(CC(F)(F)F)c2)(C2CCCC2)CC(O)=C1Cc1nc2ncc(Cl)cn2n1 (racemic) [A(227), 3-[(6-chloro[1,2,4]triazolo[1,5-a]pyrimidin-2-yl)methyl]-6-cyclopentyl-4-hydroxy-6-{2-[4-hydroxy-3-(2,2,2-trifluoroethyl)phenyl]ethyl}-5,6-dihydro-2H-pyran-2-one]
IC50: 10 nM

CCC(C#N)(CC)c1c(F)cc(CCC2(C3CCCC3)CC(O)=C(Cc3nc4ncc(C)cn4n3)C(=O)O2)cc1F (racemic) [A(262), 2-(4-{2-[2-Cyclopentyl-4-hydroxy-5-(6-methyl-[1,2,4]triazolo[1,5-a]pyrimidin-2-ylmethyl)-6-oxo-3,6-dihydro-2H-pyran-2-yl]-ethyl}-2,6-difluoro-phenyl)-2-ethyl-butyronitrile]
IC50: 6 nM

CCC(C#N)(CC)c1ccc(CCC2(C3CCCC3)CC(O)=C(Cc3nc4ncc(Cl)cn4n3)C(=O)O2)cc1F (racemic) [A(265), 2-(4-{2-[5-(6-Chloro-[1,2,4]triazolo[1,5-a]pyrimidin-2-ylmethyl)-2-cyclopentyl-4-hydroxy-6-oxo-3,6-dihydro-2H-pyran-2-yl]-ethyl}-2-fluoro-phenyl)-2-ethyl-butyronitrile]
IC50: 4 nM

CCc1cc(CCC2(C3CCCC3)CC(O)=C(Cc3nc4ncc(Cl)cn4n3)C(=O)O2)ccc1O (racemic) [A(271), 3-(6-Chloro-[1,2,4]triazolo[1,5-a]pyrimidin-2-ylmethyl)-6-cyclopentyl-6-[2-(3-ethyl-4-hydroxy-phenyl)-ethyl]-4-hydroxy-5,6-dihydro-pyran-2-one]
IC50: 6 nM

CCc1cc(CCC2(C3CCCC3)CC(O)=C(Cc3nc4ncc(Cl)cn4n3)C(=O)O2)ccc1O (racemic) [A(272), 3-(6-Chloro-[1,2,4]triazolo[1,5-a]pyrimidin-2-ylmethyl)-6-cyclopentyl-6-[2-(3-ethyl-4-hydroxy-phenyl)-ethyl]-4-hydroxy-5,6-dihydro-pyran-2-one]
IC50: 6 nM

CCc1cc(CCC2(C3CCCC3)CC(O)=C(Cc3nc4nc(C)cc(C)n4n3)C(=O)O2)c(OC)cc1O (single isomer, unassigned) [A(154), 6-Cyclopentyl-3-(5,7-dimethyl-[1,2,4]triazolo[1,5-a]pyrimidin-2-ylmethyl)-6-[2-(5-ethyl-4-hydroxy-2-methoxy-phenyl)-ethyl]-4-hydroxy-5,6-dihydro-pyran-2-one]
IC50: 5 nM

CC(C)(C#N)c1ccc(CCC2(C3CCCC3)CC(O)=C(Cc3nc4ncc(Cl)cn4n3)C(=O)O2)cc1Cl (single isomer, unassigned) [A(204), 2-(2-Chloro-4-{2-[5-(6-chloro-[1,2,4]triazolo[1,5-a]pyrimidin-2-ylmethyl)-2-cyclopentyl-4-hydroxy-6-oxo-3,6-dihydro-2H-pyran-2-yl]-ethyl}-phenyl)-2-methyl-propionitrile]
IC50: 17 nM

CC(C)(C#N)c1ccc(CCC2(C3CCCC3)CC(O)=C(Cc3nc4ncc(Cl)cn4n3)C(=O)O2)cc1Cl (single isomer, unassigned) [A(205), 2-(2-Chloro-4-{2-[5-(6-chloro-[1,2,4]triazolo[1,5-a]pyrimidin-2-ylmethyl)-2-cyclopentyl-4-hydroxy-6-oxo-3,6-dihydro-2H-pyran-2-yl]-ethyl}-phenyl)-2-methyl-propionitrile]
IC50: 1 nM

CCc1cc(CCC2(C3CCCC3)CC(O)=C(Cc3nc4ncccn4n3)C(=O)O2)c(OC)cc1O (single isomer, unassigned) [A(208), 6-cyclopentyl-6-[2-(5-ethyl-4-hydroxy-2-methoxyphenyl)ethyl]-4-hydroxy-3-([1,2,4]triazolo[1,5-a]pyrimidin-2-ylmethyl)-5,6-dihydro-2H-pyran-2-one]
IC50: 7 nM

CCc1cc(CCC2(C3CCCC3)CC(O)=C(Cc3nc4ncccn4n3)C(=O)O2)c(OC)cc1O (single isomer, unassigned) [A(209), 6-cyclopentyl-6-[2-(5-ethyl-4-hydroxy-2-methoxyphenyl)ethyl]-4-hydroxy-3-([1,2,4]triazolo[1,5-a]pyrimidin-2-ylmethyl)-5,6-dihydro-2H-pyran-2-one]
IC50: 50 nM

CC(C)Oc1ccc(CCC2(C3CCCC3)CC(=O)CC(=O)O2)cc1F (single isomer, unassigned) [J(1), 6-cyclopentyl-6-[2-(3-fluoro-4-isopropoxyphenyl)ethyl]dihydro-2H-pyran-2,4(3H)-dione]
IC50: 4400 nM
